Tests used:
Type in all cases: biochemical
Human PI3K alpha = target: T1, Human PI3K alpha (Homo sapiens, UniProt P42336); assay: Human PI3K alpha enzyme assay (HTRF); conditions: concentration not given, b1387 states 1.1 μM for PI3K α and β; for inhibition at 1.1 µM: read-out: p110 alpha Percent Inhibition
T1 construct: His (N); host or cells: SF9 insect cells (baculovirus)

Human PI3K beta = target: T2, Human PI3K beta (Homo sapiens, UniProt P42338); assay: Human PI3K beta enzyme assay (HTRF); conditions: concentration not given, b1387 states 1.1 μM for PI3K α and β; for inhibition at 1.1 µM: read-out: p110 beta Percent Inhibition
T2 construct: His (N); host or cells: SF9 insect cells (baculovirus)
Procedure, shortened: (§1)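 Compounds were mixed with 25 uM ATP, then with 3.5 uM di-C8 PI(4,5)P2 and His-tagged PI3K isoform (β 5.25 nM, δ 0.75 nM, γ 5 nM) at pH 7.00. After 30 min at room temperature, EDTA stopped the reaction and PIP3 was measured by HTRF over 1 h.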

Human PI3K delta = target: T3, Human PI3K delta (Homo sapiens, UniProt O00329); assay: Human PI3K delta enzyme assay (HTRF); conditions: concentration not given, b1389 states 1.0 μM for PI3K δ and γ; for inhibition at 1 µM: read-out: p110 delta Percent Inhibition
T3 construct: His (N); host or cells: SF9 insect cells (baculovirus)
Procedure, shortened: as §1

Human PI3K gamma = target: T4, Human PI3K gamma (Homo sapiens, UniProt P48736); assay: Human PI3K gamma enzyme assay (HTRF); conditions: concentration not given, b1389 states 1.0 μM for PI3K δ and γ; for inhibition at 1 µM: read-out: p110 gamma Percent Inhibition
T4 construct: His (N); host or cells: SF9 insect cells (baculovirus)
Procedure, shortened: as §1

T1 sequence (P42336 whole entry): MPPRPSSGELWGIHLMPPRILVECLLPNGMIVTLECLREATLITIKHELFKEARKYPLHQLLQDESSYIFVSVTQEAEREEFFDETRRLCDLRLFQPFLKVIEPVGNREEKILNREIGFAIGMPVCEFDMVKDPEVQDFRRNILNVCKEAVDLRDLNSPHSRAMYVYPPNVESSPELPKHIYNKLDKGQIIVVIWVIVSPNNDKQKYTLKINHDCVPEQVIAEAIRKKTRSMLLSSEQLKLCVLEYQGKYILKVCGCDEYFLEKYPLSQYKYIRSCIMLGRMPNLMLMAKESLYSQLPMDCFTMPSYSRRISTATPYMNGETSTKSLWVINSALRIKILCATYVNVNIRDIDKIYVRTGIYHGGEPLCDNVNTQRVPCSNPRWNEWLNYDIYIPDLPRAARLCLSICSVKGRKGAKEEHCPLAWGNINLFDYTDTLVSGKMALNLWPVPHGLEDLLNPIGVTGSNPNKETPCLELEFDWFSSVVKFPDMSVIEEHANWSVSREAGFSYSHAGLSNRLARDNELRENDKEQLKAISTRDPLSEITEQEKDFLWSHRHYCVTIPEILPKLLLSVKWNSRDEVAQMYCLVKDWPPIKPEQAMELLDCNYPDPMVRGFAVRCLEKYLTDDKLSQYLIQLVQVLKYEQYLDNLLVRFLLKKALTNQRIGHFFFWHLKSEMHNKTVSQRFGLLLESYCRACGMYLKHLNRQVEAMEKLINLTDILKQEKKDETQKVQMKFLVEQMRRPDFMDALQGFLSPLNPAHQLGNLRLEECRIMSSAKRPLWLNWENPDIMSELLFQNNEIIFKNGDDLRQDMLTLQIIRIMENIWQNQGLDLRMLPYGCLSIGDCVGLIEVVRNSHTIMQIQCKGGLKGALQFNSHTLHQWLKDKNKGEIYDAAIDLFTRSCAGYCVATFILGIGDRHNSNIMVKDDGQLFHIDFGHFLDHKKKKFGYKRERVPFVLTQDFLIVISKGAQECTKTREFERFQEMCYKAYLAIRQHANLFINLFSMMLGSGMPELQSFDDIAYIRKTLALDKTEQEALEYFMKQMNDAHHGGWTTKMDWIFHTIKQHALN
T1 sequence (P27986 whole entry partner): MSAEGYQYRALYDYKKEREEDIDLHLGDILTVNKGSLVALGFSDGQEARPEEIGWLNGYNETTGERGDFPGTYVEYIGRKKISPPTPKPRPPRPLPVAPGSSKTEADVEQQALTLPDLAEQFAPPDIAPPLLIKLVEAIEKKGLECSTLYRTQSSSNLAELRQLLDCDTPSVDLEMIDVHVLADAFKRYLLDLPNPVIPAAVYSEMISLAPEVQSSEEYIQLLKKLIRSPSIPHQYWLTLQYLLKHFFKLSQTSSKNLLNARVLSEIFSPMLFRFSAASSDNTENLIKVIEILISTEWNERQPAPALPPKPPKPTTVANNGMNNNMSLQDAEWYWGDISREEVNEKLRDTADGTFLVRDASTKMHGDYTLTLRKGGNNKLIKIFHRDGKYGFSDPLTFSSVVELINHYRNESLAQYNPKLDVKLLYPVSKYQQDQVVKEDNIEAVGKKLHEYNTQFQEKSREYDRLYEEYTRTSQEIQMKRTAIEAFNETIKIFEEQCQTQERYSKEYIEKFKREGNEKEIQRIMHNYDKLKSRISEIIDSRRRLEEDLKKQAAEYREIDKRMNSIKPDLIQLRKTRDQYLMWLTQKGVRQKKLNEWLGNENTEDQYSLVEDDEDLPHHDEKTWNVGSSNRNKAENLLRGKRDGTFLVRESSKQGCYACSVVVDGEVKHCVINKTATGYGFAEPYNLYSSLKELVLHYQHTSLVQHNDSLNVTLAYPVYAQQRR
T4 sequence (P48736 whole entry): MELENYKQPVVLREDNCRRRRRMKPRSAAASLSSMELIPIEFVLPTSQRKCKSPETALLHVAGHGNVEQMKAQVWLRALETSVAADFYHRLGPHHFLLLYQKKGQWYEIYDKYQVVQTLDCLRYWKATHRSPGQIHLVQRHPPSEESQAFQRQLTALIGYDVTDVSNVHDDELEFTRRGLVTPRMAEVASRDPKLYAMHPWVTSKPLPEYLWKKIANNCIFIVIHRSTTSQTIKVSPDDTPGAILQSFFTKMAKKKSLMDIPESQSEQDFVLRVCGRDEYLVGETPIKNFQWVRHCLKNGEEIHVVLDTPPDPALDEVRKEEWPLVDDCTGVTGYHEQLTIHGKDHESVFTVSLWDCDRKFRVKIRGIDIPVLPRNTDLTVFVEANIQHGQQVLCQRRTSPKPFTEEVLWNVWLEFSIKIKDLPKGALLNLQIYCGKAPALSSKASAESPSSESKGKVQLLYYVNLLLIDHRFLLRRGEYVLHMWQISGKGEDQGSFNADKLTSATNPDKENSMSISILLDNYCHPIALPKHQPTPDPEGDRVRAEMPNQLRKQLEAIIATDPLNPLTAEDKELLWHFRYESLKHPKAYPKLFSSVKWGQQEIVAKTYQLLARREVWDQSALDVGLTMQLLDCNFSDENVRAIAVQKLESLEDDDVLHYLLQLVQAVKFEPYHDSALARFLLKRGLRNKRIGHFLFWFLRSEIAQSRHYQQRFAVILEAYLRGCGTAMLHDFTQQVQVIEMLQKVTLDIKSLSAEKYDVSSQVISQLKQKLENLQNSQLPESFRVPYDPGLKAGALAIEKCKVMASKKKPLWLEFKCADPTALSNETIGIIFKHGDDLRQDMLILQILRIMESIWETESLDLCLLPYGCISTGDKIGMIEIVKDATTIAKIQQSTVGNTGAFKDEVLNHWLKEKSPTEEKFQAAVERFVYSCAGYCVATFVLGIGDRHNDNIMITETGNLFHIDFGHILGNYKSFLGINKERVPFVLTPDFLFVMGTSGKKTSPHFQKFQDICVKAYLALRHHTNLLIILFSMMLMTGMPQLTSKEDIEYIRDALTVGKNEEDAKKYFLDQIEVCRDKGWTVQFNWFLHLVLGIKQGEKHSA
T3 sequence (O00329 whole entry): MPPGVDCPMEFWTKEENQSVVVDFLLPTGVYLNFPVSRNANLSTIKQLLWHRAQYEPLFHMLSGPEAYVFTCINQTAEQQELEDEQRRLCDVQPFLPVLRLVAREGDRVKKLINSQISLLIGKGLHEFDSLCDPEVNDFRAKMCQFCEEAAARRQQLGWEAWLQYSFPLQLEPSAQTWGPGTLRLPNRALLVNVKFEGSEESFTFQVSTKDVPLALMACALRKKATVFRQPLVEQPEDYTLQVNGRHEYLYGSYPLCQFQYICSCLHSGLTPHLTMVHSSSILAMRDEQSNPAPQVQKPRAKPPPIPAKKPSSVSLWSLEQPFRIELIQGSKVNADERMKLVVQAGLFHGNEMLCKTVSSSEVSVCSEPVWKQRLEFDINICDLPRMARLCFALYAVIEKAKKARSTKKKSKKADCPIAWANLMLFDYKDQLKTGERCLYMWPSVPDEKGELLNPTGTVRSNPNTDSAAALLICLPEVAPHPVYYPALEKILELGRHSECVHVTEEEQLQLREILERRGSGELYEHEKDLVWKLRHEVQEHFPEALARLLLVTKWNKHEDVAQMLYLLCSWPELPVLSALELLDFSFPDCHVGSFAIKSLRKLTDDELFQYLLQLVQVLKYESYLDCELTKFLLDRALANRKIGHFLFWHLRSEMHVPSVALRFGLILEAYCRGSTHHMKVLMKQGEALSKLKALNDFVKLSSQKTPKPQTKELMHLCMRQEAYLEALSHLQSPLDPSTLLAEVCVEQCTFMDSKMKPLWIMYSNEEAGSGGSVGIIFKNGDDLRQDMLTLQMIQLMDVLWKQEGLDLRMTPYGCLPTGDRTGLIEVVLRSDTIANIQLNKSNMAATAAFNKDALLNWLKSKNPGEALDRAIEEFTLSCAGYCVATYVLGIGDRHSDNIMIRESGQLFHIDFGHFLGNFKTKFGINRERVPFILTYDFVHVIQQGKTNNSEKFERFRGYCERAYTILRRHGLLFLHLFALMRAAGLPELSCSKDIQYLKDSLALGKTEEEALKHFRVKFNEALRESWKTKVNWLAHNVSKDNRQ
T3 sequence (P27986 whole entry partner): as the sequence (P27986 whole entry partner) above
T2 sequence (P42338 whole entry): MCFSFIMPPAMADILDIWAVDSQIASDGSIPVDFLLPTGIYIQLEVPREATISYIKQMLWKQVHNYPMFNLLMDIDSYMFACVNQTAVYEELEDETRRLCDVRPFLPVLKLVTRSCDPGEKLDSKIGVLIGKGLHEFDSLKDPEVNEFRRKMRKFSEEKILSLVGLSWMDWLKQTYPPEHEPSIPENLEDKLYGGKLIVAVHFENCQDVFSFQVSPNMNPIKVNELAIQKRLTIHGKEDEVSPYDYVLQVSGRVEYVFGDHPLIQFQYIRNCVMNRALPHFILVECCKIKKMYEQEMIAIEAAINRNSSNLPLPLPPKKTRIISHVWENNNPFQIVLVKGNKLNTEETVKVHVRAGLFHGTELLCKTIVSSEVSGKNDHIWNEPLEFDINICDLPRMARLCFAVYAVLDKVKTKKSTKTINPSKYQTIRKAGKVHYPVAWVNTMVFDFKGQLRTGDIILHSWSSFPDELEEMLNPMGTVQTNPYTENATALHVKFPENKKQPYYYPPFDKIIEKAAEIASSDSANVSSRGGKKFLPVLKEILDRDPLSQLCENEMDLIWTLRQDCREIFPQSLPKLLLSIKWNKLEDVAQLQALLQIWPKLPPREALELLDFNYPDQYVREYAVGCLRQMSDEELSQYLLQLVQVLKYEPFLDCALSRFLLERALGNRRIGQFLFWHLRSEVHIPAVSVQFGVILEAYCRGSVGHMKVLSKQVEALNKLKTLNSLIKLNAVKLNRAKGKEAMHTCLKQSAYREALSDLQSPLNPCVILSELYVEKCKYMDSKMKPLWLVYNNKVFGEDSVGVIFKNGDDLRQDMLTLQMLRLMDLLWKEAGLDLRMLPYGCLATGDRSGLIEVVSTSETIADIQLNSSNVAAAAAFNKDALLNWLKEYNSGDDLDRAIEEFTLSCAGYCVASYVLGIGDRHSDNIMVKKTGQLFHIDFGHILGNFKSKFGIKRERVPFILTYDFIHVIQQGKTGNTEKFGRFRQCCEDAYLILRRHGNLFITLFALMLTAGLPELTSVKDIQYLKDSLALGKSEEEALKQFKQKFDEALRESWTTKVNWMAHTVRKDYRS
T2 sequence (P27986 whole entry partner): as the sequence (P27986 whole entry partner) above

Row | inhibition at 1.1 µM (Human PI3K alpha) [%] | inhibition at 1.1 µM (Human PI3K beta) [%] | inhibition at 1 µM (Human PI3K delta) [%] | inhibition at 1 µM (Human PI3K gamma) [%] | p110 alpha Percent Inhibition (Human PI3K alpha) [%] | p110 gamma Percent Inhibition (Human PI3K gamma) [%] | p110 beta Percent Inhibition (Human PI3K beta) [%] | p110 delta Percent Inhibition (Human PI3K delta) [%] | SMILES
1 | 99 | 110 | 115 | 69 |  |  |  |  | O=C(O)c1sc(N2CCOCC2)nc1Cc1cc2cc(Br)ccc2s1 [Compound 303]
2 | 6 | 25 | 32 | 7 |  |  |  |  | CC(C)C(c1ccc(Cl)cc1)c1nc(N2CCOCC2)sc1C(=O)O (stereo not drawn) [Compound 304]
3 | 81 | 109 | 108 | 51 |  |  |  |  | COCC(c1ccc2ccccc2c1)c1c(C(=O)O)sc(N2CCOCC2)c1C#N (stereo not drawn) [Compound 306]
4 | 56 | 101 | 108 | 66 |  |  |  |  | N#Cc1c(N2CCOCC2)sc(C(=O)O)c1Cc1ccc2ccncc2c1 [Compound 309, 4-cyano-3-(isoquinolin-7-ylmethyl)-5-(morpholin-4-yl)thiophene-2-carboxylic acid]
5 | 34 | 106 | 105 | 64 |  |  |  |  | O=C(O)c1sc(N2CCOCC2)nc1Cc1ccc2ccc(F)cc2c1 [Compound 310]
6 | 55 | 104 | 105 | 64 |  |  |  |  | N#Cc1c(N2CCOCC2)sc(C(=O)O)c1Cc1ccc2sccc2c1 [Compound 311]
7 | 64 | 105 | 92 | 47 |  |  |  |  | N#Cc1c(N2CCOCC2)sc(C(=O)O)c1Cc1cc2cc(F)ccc2[nH]1 [Compound 312]
8 |  | 117 | 86 |  | 73 | 30 |  |  | N#Cc1c(N2CCOCC2)sc(C(=O)O)c1C(CCO)c1ccc2ccccc2c1 (stereo not drawn) [Compound 313]
9 | 42 | 109 | 104 | 42 |  |  |  |  | O=C(O)c1sc(N2CCOCC2)nc1Cc1cc2ccccc2cc1F [Compound 314]
10 | 97 | 110 | 114 | 75 |  |  |  |  | N#Cc1c(N2CCOCC2)sc(C(=O)O)c1Cc1ccc2cc(F)ccc2c1 [Compound 315]
11 | 78 | 106 | 111 | 62 |  |  |  |  | N#Cc1c(N2CCOCC2)sc(-c2nnn[nH]2)c1Cc1ccc2ccccc2c1 [Compound 316, 2-(morpholin-4-yl)-4-(2-naphthylmethyl)-5-(1H-tetrazol-5-yl)thiophene-3-carbonitrile]
12 | 20 | 77 | 70 | 29 |  |  |  |  | CS(=O)(=O)NC(c1ccc(Cl)cc1)c1c(C(=O)O)sc(N2CCOCC2)c1C#N (stereo not drawn) [Compound 317]
13 | 18 | 96 | 76 | 14 |  |  |  |  | NC(=O)c1ccc2ccc(Cc3nc(N4CCOCC4)sc3C(=O)O)cc2c1 [Compound 318]
14 | 59 | 105 | 113 | 50 |  |  |  |  | O=C(O)c1sc(N2CCOCC2)nc1Cc1ccc2ccccc2c1F [Compound 319]
15 | 16 | 94 | 97 | 35 |  |  |  |  | O=C(O)c1sc(N2CCOCC2)c(F)c1Cc1ccc(Cl)c(Cl)c1 [Compound 320, 3-(3,4-dichlorobenzyl)-4-fluoro-5-morpholinothiophene-2-carboxylic acid]
16 | 67 |  |  | 59 |  |  | 73 | 86 | CC(c1ccc(Cl)c(Cl)c1)c1c(C(=O)O)sc(N2CCOCC2)c1C#N (stereo not drawn) [Compound 321]
17 |  | 104 |  |  | 64 | 28 |  | 67 | N#Cc1c(N2CCOCC2)sc(C(=O)O)c1C(CCF)c1ccc2ccccc2c1 (stereo not drawn) [Compound 322]
18 | 66 | 61 | 97 | 46 |  |  |  |  | CC(C)(C)[S+]([O-])NC(c1ccc2ccccc2c1)c1c(C(=O)O)sc(N2CCOCC2)c1C#N (stereo not drawn) [Compound 323]
19 | 17 | 89 | 89 | 22 |  |  |  |  | N#Cc1ccc2ccc(Cc3nc(N4CCOCC4)sc3C(=O)O)cc2c1 [Compound 325]
20 |  | 108 | 96 | 56 | 79 |  |  |  | CC(c1ccc2cc(F)ccc2c1)c1c(C(=O)O)sc(N2CCOCC2)c1C#N (stereo not drawn) [Compound 326]
21 | 34 | 109 | 109 | 22 |  |  |  |  | N#Cc1c(N2CCOCC2)sc(C(N)=O)c1Cc1ccc2ccccc2c1 [Compound 327, 4-cyano-5-(morpholin-4-yl)-3-(2-naphthylmethyl)thiophene-2-carboxamide]
22 | 11 | 98 | 83 | 48 |  |  |  |  | O=C(O)c1sc(N2CCOCC2)nc1Cc1ccc2cc[nH]c2c1 [Compound 328]
23 | 39 | 112 | 80 | 29 |  |  |  |  | NS(=O)(=O)c1sc(N2CCOCC2)nc1Cc1ccc2ccccc2c1 [Compound 329, 2-morpholino-4-(naphthalen-2-ylmethyl)thiazole-5-sulfonamide]
24 | 85 | 109 | 106 | 61 |  |  |  |  | Cn1c(Cc2c(C(=O)O)sc(N3CCOCC3)c2C#N)cc2ccccc21 [Compound 330]
25 | 37 | 105 | 107 | 51 |  |  |  |  | CN(C)CCC(c1ccc(Cl)c(Cl)c1)c1c(C(=O)O)sc(N2CCOCC2)c1C#N (stereo not drawn) [Compound 331, 4-cyano-3-[1-(3,4-dichlorophenyl)-3-(dimethylamino)propyl]-5-(morpholin-4-yl)thiophene-2-carboxylic acid]
26 | 11 | 77 | 91 | 27 |  |  |  |  | CC(c1ccc(Cl)c(Cl)c1)c1nc(N2CCOCC2)sc1C(=O)O (stereo not drawn) [Compound 332]
27 | 21 | 103 | 101 | 12 |  |  |  |  | NC(=O)c1sc(N2CCOCC2)nc1Cc1ccc2ccccc2c1 [Compound 334]
28 | 54 | 111 | 107 | 31 |  |  |  |  | COc1ccc2ccc(Cc3nc(N4CCOCC4)sc3C(=O)O)cc2c1 [Compound 335]
29 |  |  |  |  | 16 | 10 | 90 | 49 | CN(C)C(c1ccc(Cl)c(Cl)c1)c1c(C(=O)O)sc(N2CCOCC2)c1C#N (stereo not drawn) [Compound 336]

Row | SMILES | inhibition at 1.1 µM (Human PI3K alpha) [%] | inhibition at 1.1 µM (Human PI3K beta) [%] | inhibition at 1 µM (Human PI3K delta) [%] | inhibition at 1 µM (Human PI3K gamma) [%] | p110 alpha Percent Inhibition (Human PI3K alpha) [%] | p110 gamma Percent Inhibition (Human PI3K gamma) [%] | p110 beta Percent Inhibition (Human PI3K beta) [%] | p110 delta Percent Inhibition (Human PI3K delta) [%]
30 | CC(c1ccc2ccccc2c1)c1c(C(=O)O)sc(N2CCOCC2)c1C#N (stereo not drawn) [Compound 333] | 63 | 95 | 74 | 55 |  |  |  | 
